Experimental data: PubChem BioAssay AID624167 (Sanford-Burnham Center for Chemical Genomics, 2012)
Activity calls are given as the source filed them.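 How the source made its calls: active means mean IC50 for reducing PEG3 promoter reporter signal at or below a set limit, with IC50 above the limit in both counter screens; inactive means the rest, including counter screen hits.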

Key:
PEG-3 [1] = assay: Peg3 promoter luciferase inhibitors, potency, dose response, cell-based, HeLa, CREF/GAPDH counter-screen panel (AID 624167); details: HeLa PEG-Prom luciferase reporter, overnight, CREF/GAPDH counter-screens
PEG-3 [2] = target: PEG-3 (UniProt Q6IN02); assay: as above; details: HeLa PEG-Prom luciferase reporter, overnight, CREF/GAPDH counter-screens, mean of runs
PEG-3 (UniProt Q6IN02), sequence (Q6IN02 whole entry, looked up): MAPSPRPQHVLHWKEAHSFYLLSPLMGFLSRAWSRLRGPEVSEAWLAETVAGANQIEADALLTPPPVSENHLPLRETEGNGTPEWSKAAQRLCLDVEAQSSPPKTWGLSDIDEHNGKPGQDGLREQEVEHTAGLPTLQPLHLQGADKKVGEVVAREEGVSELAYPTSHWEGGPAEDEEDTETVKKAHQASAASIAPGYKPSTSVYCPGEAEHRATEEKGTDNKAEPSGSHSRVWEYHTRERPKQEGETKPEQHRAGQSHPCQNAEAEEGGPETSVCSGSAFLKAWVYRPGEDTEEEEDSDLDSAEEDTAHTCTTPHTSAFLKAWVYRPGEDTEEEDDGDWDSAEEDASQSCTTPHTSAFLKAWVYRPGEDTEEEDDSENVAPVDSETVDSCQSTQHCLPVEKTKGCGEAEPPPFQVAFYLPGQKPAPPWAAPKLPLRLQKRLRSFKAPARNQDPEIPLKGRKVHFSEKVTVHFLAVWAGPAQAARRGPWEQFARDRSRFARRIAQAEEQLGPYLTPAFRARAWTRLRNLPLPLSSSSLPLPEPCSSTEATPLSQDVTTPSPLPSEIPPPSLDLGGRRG

[3] = as above; details: CREF/GAPDH counter-screens; GAPDH; mean of runs
GAPDH = assay: as above; details: CREF/GAPDH counter-screens
Rat fibroblasts (CREF) = assay: as above; details: CREF/GAPDH counter-screens
[4] = run 1, dose range 1, individual replicate IC50 per panel
[5] = run 2, dose range 1, individual replicate IC50 per panel

Row | SMILES | IC50 (PEG-3 [1]; [4]) [µM] | IC50 (PEG-3 [1]; [5]) [µM] | IC50 (PEG-3 [2]) | IC50 [3] | IC50 (GAPDH; [4]) [µM] | IC50 (GAPDH; [5]) [µM] | IC50 (Rat fibroblasts (CREF); mean of runs) | IC50 (Rat fibroblasts (CREF); [4]) [µM] | IC50 (Rat fibroblasts (CREF); [5]) [µM]
1 | Cc1oc(-c2ccc3c(c2)OCCO3)cc1C(=O)O | 3.12 | 4.73 | 3.93 µM | 5.18 µM | 4.06 | 6.29 | 34.2 µM | 31.2 | 37.3
2 | O=C(N/N=C/c1sc(N2CCOCC2)nc1-c1ccccc1)c1cccc(S(=O)(=O)N2CCCC2)c1 | 5.9 | 5.05 | 5.47 µM | inactive | 18.9 | 42 | 54 µM (inactive) | > 100 | 8
3 | CC(/C=C/c1ccccc1)=N/NC(=O)c1cc([N+](=O)[O-])cc([N+](=O)[O-])c1 | > 100 | 3.58 | inactive | inactive | > 100 | 9.02 | 57.3 µM (inactive) | 14.5 | > 100
4 | CCc1ccc(/C=C2\SC(=S)N(CCCC(=O)NC3=NCCS3)C2=O)cc1 | 1.28 | 1.14 | 1.21 µM | 4.53 µM | 4.61 | 4.45 | > 100 µM (inactive) | > 100 | > 100
5 | CS(=O)(=O)c1ccc(-c2sc3ccccc3c2C#CCCO)cc1 | 14.3 | 0.572 | 7.42 µM | 28.9 µM | 30.2 | 27.7 | 32.3 µM | 27.7 | 36.9
6 | CCCCC(=O)NC(c1ccccc1)c1ccc2cccnc2c1O (centres undefined) | 2.84 | > 100 | inactive | > 100 µM (inactive) | > 100 | > 100 | > 100 µM (inactive) | > 100 | > 100
7 | COc1ccccc1Nc1nc(-c2sc(NC(=O)c3ccco3)nc2C)cs1 | 7.41 | > 100 | inactive | > 100 µM (inactive) | > 100 | > 100 | > 100 µM (inactive) | > 100 | > 100
8 | Cc1cccc(OCC(=O)NCC(=O)N/N=C/c2cc(Br)cc(Br)c2O)c1 | 9.95 | 5.87 | 7.91 µM | > 100 µM (inactive) | > 100 | > 100 | 47.1 µM | 42.2 | 52
9 | CN=c1sc2c(n1C)C(=O)c1ccccc1C2=O | 9.56 | 10.3 | 9.93 µM | inactive | 29.9 | 48.4 | 4.98 µM | 4.97 | 5
10 | CN(C)c1ccc(C=c2c3ccccc3n3c2cc(-c2ccccc2)[n+]3C)cc1 | 7.06 | 1.54 | 4.3 µM | 8.31 µM | 9.4 | 7.23 | 29.4 µM | 27.5 | 31.3
11 | CCc1ccn2cc(-c3ccc4c(c3)OCO4)nc2c1 | 1.97 | 12.4 | 7.2 µM | 6.32 µM | 3.75 | 8.89 | 50.4 µM (inactive) | 0.748 | > 100
12 | C/C(=N\NC(=O)c1c(C)nc2ccccn12)c1ccc(O)cc1O | 1.31 | 0.534 | 0.922 µM | > 100 µM (inactive) | > 100 | > 100 | 62.8 µM (inactive) | > 100 | 25.5
13 | CCSc1nc2ccccc2n1C(=O)/C=C\c1ccc(OC)c(OC)c1 | 4.86 | 6.08 | 5.47 µM | 14.6 µM | 14.2 | 15 | 72.8 µM (inactive) | 45.7 | > 100
14 | CC(C)CC1C(=O)N(Cc2cn(Cc3ccco3)nn2)CCS(=O)(=O)N1Cc1ccc(-c2ccc(F)cc2)cc1 (centres undefined) | 10.4 | 6.09 | 8.24 µM | inactive | > 100 | 47.1 | 67.5 µM (inactive) | > 100 | 34.9
15 | COc1cc(/C=C2\SC(=Nc3ccccc3OC)NC2=O)ccc1O | 4.7 | > 100 | inactive | > 100 µM (inactive) | > 100 | > 100 | > 100 µM (inactive) | > 100 | > 100
16 | O=C(N/N=C/c1ccc(Cl)c([N+](=O)[O-])c1)c1cc(-c2ccc3c4c(cccc24)CC3)n[nH]1 | 11.2 | 5.1 | 8.14 µM | 23 µM | 22.8 | 23.2 | > 100 µM (inactive) | > 100 | > 100

Row | SMILES | IC50 (PEG-3 [1]; [4]) [µM] | IC50 (PEG-3 [1]; [5]) [µM] | IC50 (PEG-3 [2]) | IC50 [3] | IC50 (GAPDH; [4]) [µM] | IC50 (GAPDH; [5]) [µM] | IC50 (Rat fibroblasts (CREF); mean of runs) | IC50 (Rat fibroblasts (CREF); [4]) [µM] | IC50 (Rat fibroblasts (CREF); [5]) [µM]
17 | CC(C)(C)c1ccc(Oc2ccc(N)cc2)cc1 | 4.88 | 4.1 | 4.49 µM | 1.44 µM | 0.457 | 2.43 | 74.7 µM (inactive) | 74.7 | > 100
18 | CC(=O)OC1CC[C@]2(C#N)[C@H]3CC[C@]4(C)[C@H](C5C=CC(=O)O5)CCC4(O)C3CCC2(O)C1 (some centres undefined) | 9.87 | 11 | 10.4 µM | 10.1 µM | 3.88 | 16.4 | > 100 µM (inactive) | > 100 | > 100
19 | COc1cc(CNCCCN2CCOCC2)cc(Br)c1OCc1ccc(Cl)cc1 | 9.57 | 8.99 | 9.28 µM | 12.3 µM | 15.3 | 9.28 | 14.4 µM | > 80 | 14.4
20 | CC(C)CCCCCCCCCCCCC(=O)NCC(=O)NC1C(O)C(O)C(Nc2ncnc3nc[nH]c23)OC1C(O)CO (centres undefined) | 3.44 | < 0.2 | 1.82 µM | < 0.2 µM | < 0.2 | < 0.2 | 50.1 µM (inactive) | < 0.2 | > 100
21 | O=C(O)c1ccc(N/N=C/c2ccc3c(c2)OCO3)cc1 | 1.24 | 1.89 | 1.56 µM | 2.02 µM | 1.37 | 2.67 | 52.3 µM (inactive) | 57.5 | 47.1
22 | COc1ccc(C(NC(=O)C(C)C)c2ccc3cccnc3c2O)cc1 (centres undefined) | 3.71 | 5.68 | 4.7 µM | > 100 µM (inactive) | > 100 | > 100 | 23.3 µM | 12.3 | 34.3
23 | Cc1cc(C)c(C)c(S(=O)(=O)N2CCN(C(=O)c3cc(=O)[nH]c4ccccc34)CC2)c1C | 13.6 | 5.06 | 9.32 µM | inactive | 24.9 | 36.8 | 55.2 µM (inactive) | > 100 | 10.3
24 | CCC(=O)NC(c1ccc(C)cc1)c1ccc2cccnc2c1O (centres undefined) | 1.31 | > 100 | inactive | inactive | 46.6 | > 100 | > 100 µM (inactive) | > 100 | > 100
25 | CC(=O)OC1(C)CC(C)C(=O)C(C(O)CC2CC(=O)NC(=O)C2)C1 (centres undefined) | 0.221 | 0.385 | 0.303 µM | < 0.2 µM | < 0.2 | < 0.2 | < 0.2 µM | < 0.2 | < 0.2
26 | CCCC(=O)NC(c1ccccc1)c1ccc2cccnc2c1O (centres undefined) | 3.04 | 1.91 | 2.47 µM | > 100 µM (inactive) | > 100 | > 100 | 13.1 µM | 0.587 | 25.7
27 | COc1cc(Nc2c3ccccc3nc3ccccc23)cc(OC)c1OC | 8.96 | 7.19 | 8.07 µM | inactive | 33.2 | 35 | 36.2 µM | 26.9 | 45.5
28 | CC1=NOC(=O)/C1=C\c1ccc(-c2ccccc2Br)o1 | 11.3 | 10.1 | 10.7 µM | 18.3 µM | 16.9 | 19.7 | 50 µM | 24.6 | 75.3
29 | CCCCC(=O)NC(c1ccc(OC)cc1)c1ccc2cccnc2c1O (centres undefined) | 8.04 | 7.99 | 8.02 µM | > 100 µM (inactive) | > 100 | > 100 | > 100 µM (inactive) | > 100 | > 100
30 | CCc1ccc(/C=C2\SC(=S)N(CCCC(=O)Nc3cc(C)on3)C2=O)cc1 | 3.86 | 3.05 | 3.46 µM | 9.14 µM | 7.4 | 10.9 | > 100 µM (inactive) | > 100 | > 100
31 | Cc1ccsc1/C=N/Nc1cccc(C(=O)O)c1 | 1.27 | 1.92 | 1.6 µM | 5.35 µM | 3.26 | 7.43 | > 100 µM (inactive) | > 100 | > 100
